Source: patent publication US6875448B1, “Method of intracellular sustained-release of drug and preparations” (Chugai Seiyaku Kabushiki Kaisha, priority 1999, dated 2005)

Test system: Ltk− cells
Test: Efficiency of introduction into cells with the aid of Ca2+ indicator
Format: cell-based, mouse
Details: intracellular calcium elevated by calcium ionophore
Procedure: To the nanospheres (red fluorescent), calcium green-1 acetoxymethyl derivative was added as a fluorescent Ca^2+ indicator to give a concentration of 20 mM and mixed at room temperature for 1 hour so that it was adsorbed on the nanospheres. The unadsorbed calcium green-1 was removed by dialysis (Spectra/Por Membranes MWCO:12-14000) and buffer replacement was performed to prepare liposomes and fusogenic liposomes. 2×10^5 Ltk^−cells that had been seeded on 6-well plates one day before were washed with PBS(−) and exposed for 1 minute to the action of the calcium green-1 acetoxymethyl derivative, calcium green-1 adsorbed nanospheres, liposomes or fusogenic liposomes which were all conditioned to have the same fluorescence intensity of 2700 (Ex. 488 nm; Em, 534 nm). Thereafter, the cells were washed with PBS(−), cultured in an Eagle's MEM medium for 1 hour, stripped from the medium with trypsin and subjected to the measurement of fluorescence intensity (Ex, 488 nm; Em, 534 nm). Thereafter, a calcium ionophore/DMSO solution was added to give a concentration of 0.1 mg/mL and fluorescence intensity was measured at Ex=488 nm and Em=534 nm.

## calcium green-1 acetoxymethyl derivative
  fluorescence of calcium green-1 in cells: barely detectable
